Patent US20110200655A1, “Systems and methods that kill infectious agents (bacteria) without the use of a systemic anti-biotic” (priority 2010, published 2011)

Assays:
[1] = target: MMPs; settings: compared with Ilomastat; cited from earlier work
[2] = tested on: E. coli bacteria; experiment: Zone of inhibition of extract solutions on agar culture plate; type: cell-based, Escherichia coli; settings: 20 microliter drop
Experimental: In this example, a microbicidal utility substrate is made of a nonwoven rayon gauze material graft polymerized with diallyldimethylammonium chloride (DADAMC), and containing approximately 10 weight % poly(DADMAC)), and SofWick, a commercially available rayon gauze material manufactured by Johnson & Johnson were used as substrates. The material was prepared via modification of the SofWick substrate. Each substrate measured approximately 40 square inches. Substrates were dried at 60° C. for 30 minutes and then weighed. Both samples were trimmed to weigh exactly 1.00 grams each. A 0.5 weight % solution of Cefazolin Sodium USP (Geneva Pharmaceuticals) was prepared. Each sample was placed in a 50 mL screw-cap polypropylene centrifuge tube, along with 30 mL of the Cefazolin solution and the tubes were placed on a rotating agitator for 3 hours. The samples were removed from the solutions, then squeezed to remove excess solution, dried at 60° C. for 2 hours, then weighed. The sample weighed 1.05 grams, whereas the SofWick sample weighed 1.00 grams. […] The extraction liquid was saved for analysis.
The dried samples were placed in separate 50 mL centrifuge tubes containing 25 mL of distilled water, then placed in the rotating agitator overnight at room temperature. The samples were then removed, squeezed to remove excess solution, dried at 60° C. for 2 hours, then weighed. The sample weighed 1.03 grams, and the SofWick sample weighed 0.98 grams. […] The extraction liquid was saved for analysis This extraction procedure was repeated […] additional times to yield two series of six extraction liquids.
The extract solutions were tested for antimicrobial activity by placing single 20 microliter drops of the solutions at marked locations on an agar culture plate spread with ~3×10^3 CFU (continuous lawn) of E. coli bacteria. Plates were incubated overnight at 37° C., and the diameter of the “zone of inhibition”, or “ZOI” was measured. The size of this zone corresponds to the antibacterial activity of the extract solutions. […]

[3] = tested on: Staph. aureus; experiment: as above; type: cell-based, Staphylococcus aureus
Experimental: The extract solutions were tested for antimicrobial activity by placing single 20 microliter drops of the solutions at marked locations on an agar culture plate spread with ~3×10^3 CFU (continuous lawn) of E. coli bacteria. Plates were incubated overnight at 37° C., and the diameter of the “zone of inhibition”, or “ZOI” was measured. The size of this zone corresponds to the antibacterial activity of the extract solutions.
The samples were soaked in 25 mL of 5% PG solution for 2 hours, then squeezed to remove excess solution, dried and weighed. Samples were then washed with 25 mL of distilled water for one hour, then dried and weighed. These wash solutions (G-1 and H-1) were saved for analysis. The samples were then subjected to two additional washings with 25 mL distilled water, without drying in between washings (G-2, G-3, and H-2, H-3). Samples were then dried and weighed.
A repeat of the method of Example 15 was used, except that the extraction solvent used was phosphate buffered saline (“PBS”, pH=7.4, Fisher Scientific), and samples were not dried and weighed between extractions. Samples of a microbicidal utility substrate (Sample I, initial weight=1.024 g) and SofWick (Sample J, initial weight=1.011 g) were each soaked in 20 Ml of ~4% penicillin G solution overnight, and excess solution was removed by squeezing. Samples were then washed with 25 mL distilled water for one hour with agitation, squeezed to remove excess liquid, and then subjected to five sequential extractions using 25 mL of PBS for one hour at room temperature. Samples were squeezed to remove excess solution between extractions. Extracts were tested for antibacterial activity against S. aureus according to the procedure outlined above.
The method of Example 15 was used, except that sodium pyrithione (“SP”, Acros Chemical) was used instead of penicillin. One gram samples of the microbicidal utility substrate (sample K), and untreated SofWick (sample L) were each soaked overnight in 25 ml of 0.5% SP solution. Samples were removed and squeezed to remove excess liquid. Samples were then washed in 25 mL of distilled water for one hour with agitation, then squeezed to remove excess liquid. Each sample was subjected to four sequential extractions using 25 mL of distilled water for one hour at room temperature with agitation. Samples were squeezed to remove excess solution between extraction cycles. The extracts were tested for antibacterial activity against S. aureus using the procedure described above.

[4] = tested on: microorganisms; settings: tobramycin 2.5 mg/l, 15-400 µA/cm^2 during 8 h; cited from earlier work

CC(C)C[C@H](CC(=O)NO)C(=O)N[C@@H](Cc1c[nH]c2ccccc12)C(=O)O [C-terminal carboxylic form of Ilomastat]
Ki values for MMPs [1]: lower

Cc1nnc(SCC2=C(C(=O)O)N3C(=O)[C@@H](NC(=O)Cn4cnnn4)[C@H]3SC2)s1 [Cefazolin, Cefazolin Sodium USP]
ZOI diameter ([2]; Cefazolin 0.01% control solution): 0 mm | ZOI diameter ([2]; Cefazolin 0.1% control solution): 18 mm | ZOI diameter ([2]; Cefazolin 1% control solution): 40 mm

CNC(=O)C(Cc1c[nH]c2ccccc12)NC(=O)C(CC(=O)O)CC(C)C (centres unmarked) [GM1489]
Ki values for MMPs [1]: almost as good as Ilomastat

CC1(C)S[C@@H]2[C@H](NC(=O)Cc3ccccc3)C(=O)N2[C@H]1C(=O)[O-].[K+] [Penicillin G, Penicillin G Potassium]
ZOI diameter ([3]; Penicillin G 0.01% control solution): 0 mm | ZOI diameter ([3]; Penicillin G 0.1% control solution): 44 mm | ZOI diameter ([3]; Penicillin G 1.0% control solution): 56 mm

[Na+].[O-][n+]1ccccc1[S-] [SP, sodium pyrithione]
ZIO of SP control solution ([3]; 0.01% SP): 12 mm | ZIO of SP control solution ([3]; 0.1% SP): 26 am

NC[C@H]1O[C@H](O[C@H]2[C@H](O)[C@@H](O[C@H]3O[C@H](CO)[C@@H](O)[C@H](N)[C@H]3O)[C@H](N)C[C@@H]2N)[C@H](N)C[C@@H]1O [tobramycin]
killing of microorganisms with current and antibiotic [4]: total killing of microorganisms
